Data on five molecules can be found in ChEMBL document CHEMBL1201862, “PubChem BioAssay data set” (2004).

Among the test systems are OVCAR-4; COLO 205; SK-OV-3; HCC 2998; MOLT-4; SF-295; TK-10; NCI-H460; Malme-3M; KM12; CAKI-1; HCT-15; 786-0; UO-31; SW-620; UACC-257; HOP-92.
Holding throughout (test): growth of human tumour cells (NCI), 48 h

Molecules are shown by their SMILES.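 The compound was tested at five concentrations on cells cultured in 96-well plates, with a 48-hour exposure period. At the GI50, growth is halved.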 Active and inactive are the calls of the source. No stated cut-off is given here; in the data, active = GI50 up to about 1.1 µM and inactive = higher. Some results are limits rather than exact numbers.

Consider `CC1CCCc2c1c1ccc3c(O)cccc3c1oc2=O` (configuration not stated), for which the GI50 in the experiment on OVCAR-4 is 14.1 µM (inactive); in the experiment with COLO 205, > 100 µM (inactive); with SK-OV-3, 20.7 µM (inactive); in the experiment on HCC 2998, > 100 µM (inactive); with MOLT-4 it was > 100 µM (inactive); in the experiment on SF-295, 14.8 µM (inactive). In addition, the GI50 was 28.8 µM (inactive) with TK-10; > 100 µM (inactive) in the experiment with NCI-H460; > 100 µM (inactive) with Malme-3M; > 100 µM (inactive) in the experiment with KM12; 39.4 µM (inactive) with CAKI-1; greater than 100 µM in the experiment with HCT-15. Moreover, the GI50 with 786-0 was 19.5 µM (inactive); in the experiment on UO-31, > 100 µM (inactive); with SW-620 it was > 100 µM (inactive); in the experiment on UACC-257 it was > 100 µM (inactive).
Turning to `CC1=CP(=O)(c2ccccc2)C=C(C)C1=C(Cl)Cl` (configuration not stated), the GI50 is 12.9 µM (inactive) with OVCAR-4; 4.45 µM (inactive) in the experiment with COLO 205; 29.4 µM (inactive) in the experiment on SK-OV-3; 15 µM (inactive) with HCC 2998; 3.91 µM (inactive) with MOLT-4; 5.38 µM (inactive) with SF-295. In addition, the GI50 was 4.68 µM (inactive) with TK-10; 3.35 µM (inactive) in the experiment on NCI-H460; 3.37 µM (inactive) with KM12; 4.1 µM (inactive) with 786-0; 3.82 µM (inactive) in the experiment with SW-620.
Regarding `CCO/S(=N/S(=O)(=O)c1ccccc1)c1ccccc1[N+](=O)[O-]` (configuration not stated), the GI50 with OVCAR-4 was 44.1 µM (inactive); in the experiment with COLO 205, > 100 µM (inactive); in the experiment with SK-OV-3 it was > 100 µM (inactive); in the experiment with HCC 2998 it was > 100 µM (inactive); in the experiment with MOLT-4 it was > 100 µM (inactive); in the experiment on SF-295, > 100 µM (inactive). The GI50 is > 100 µM (inactive) in the experiment on NCI-H460; > 100 µM (inactive) in the experiment with Malme-3M; > 100 µM (inactive) in the experiment on KM12; > 100 µM (inactive) with CAKI-1; greater than 100 µM in the experiment with HCT-15; > 100 µM (inactive) in the experiment on 786-0. For the same molecule, the GI50 in the experiment with UO-31, in the experiment with SW-620 and in the experiment with UACC-257 was > 100 µM (inactive) throughout.
For the molecule `COc1cc(/C=C\c2ccncc2)cc(OC)c1OC`, the GI50 was > 100 µM (inactive) in the experiment with OVCAR-4; 42.1 µM (inactive) with COLO 205; 59.4 µM (inactive) with MOLT-4; 54.3 µM (inactive) in the experiment on SF-295; > 100 µM (inactive) with TK-10; 46.6 µM (inactive) in the experiment with NCI-H460. Moreover, the GI50 was > 100 µM (inactive) in the experiment on Malme-3M; 48.1 µM (inactive) in the experiment on KM12; 80 µM (inactive) with CAKI-1; 36.5 µM (inactive) with HOP-92; 55.7 µM in the experiment with HCT-15; > 100 µM (inactive) in the experiment on 786-0. Besides, the GI50 with UO-31 is 72.3 µM (inactive); in the experiment with SW-620, 43.2 µM (inactive); in the experiment with UACC-257, > 100 µM (inactive).
`CC(C)(C)C1CCP(=O)(c2ccccc2)CC1` (configuration not stated): the GI50 in the experiment on OVCAR-4, in the experiment with COLO 205, with SK-OV-3, with HCC 2998, in the experiment with MOLT-4 and in the experiment on SF-295 was > 100 µM (inactive) throughout. The GI50 in the experiment with TK-10 was > 100 µM (inactive); in the experiment with NCI-H460, > 100 µM (inactive); with Malme-3M it was > 100 µM (inactive); in the experiment with KM12 it was > 100 µM (inactive); with HCT-15 it was greater than 100 µM; in the experiment on 786-0, > 100 µM (inactive). Also, the GI50 with UO-31, in the experiment with SW-620 and in the experiment with UACC-257 was > 100 µM (inactive) throughout.
